Like-named read-outs stand apart in the source and are kept apart here.
Tests used:
[1] = Bidirectional permeability across Caco-2 cell monolayers; assay type: in vitro ADME; settings: human; for recovery at 120 min, 5 μM: Caco-2, Caco-2, 5 μM; for Papp A→B at 120 min, 5 μM / Papp B→A at 120 min, 5 μM / efflux ratio at 120 min, 5 μM: Caco-2, 5 μM
Procedure: The bidirectional permeability and absorption mechanism of ZB716 was evaluated across Caco-2 cell monolayers.
The apical-to-basolateral (A–B) and basolateral-to-apical (B–A) transport of ZB716 in HBSS (25 mM HEPES) with 1% BSA was measured across Caco-2 cell monolayers. […] All incubations were performed in triplicate, and the integrity of the cell monolayers was confirmed using the marker Lucifer yellow.
The slope, k, was determined by linear
using the following equation: […]
1.4 Intestinal Mucosal Permeation of ZB716
Papp= VAArea х timeх ሾdrugሿreceiverሾdrugሿinitial,donor

CYP1A2 = assay: CYP induction (enzyme activity) in cryopreserved human hepatocytes, CYP1A2; settings: for Percent of Control / fold induction at 72 h, 30 µM: 30 µM; for fold induction at 72 h, 30 µM / fold induction at 72 h, 50 µM: human, plated cryopreserved human hepatocytes
Procedure: (§1) The UPLC–MS/MS (SHIMADZU, LC-30AD) equipped with waters Xselect®HSS T3 2.5 μm (2.1 × 50 mm) was used to detect the marker metabolites in the enzyme activity assay. The fold-induction enzyme activity was determined using the ratio calculation (the calculation details are available in the Supplementary Materials).
(§2) CYP activity was expressed as pmol/min/million cells where pmol was defined as the amount of metabolite formed during the reaction. […] The fold-induction enzyme activity was determined by the ratio:
(§3) Fold of induction = CYP activity(induced) / CYP activity(vehicle)
(§4) % of positive control = (𝑪𝒀𝑷 𝒂𝒄𝒕𝒊𝒗𝒊𝒕𝒚(𝒊𝒏𝒅𝒖𝒄𝒆𝒅)ି 𝑪𝒀𝑷 𝒂𝒄𝒕𝒊𝒗𝒊𝒕𝒚(𝑫𝑴𝑺𝑶))(𝑪𝒀𝑷 𝒂𝒄𝒕𝒊𝒗𝒊𝒕𝒚(𝒑𝒐𝒔𝒊𝒕𝒊𝒗𝒆 𝒄𝒐𝒏𝒕𝒓𝒐𝒍)ି 𝑪𝒀𝑷 𝒂𝒄𝒕𝒊𝒗𝒊𝒕𝒚(𝑫𝑴𝑺𝑶))х 𝟏𝟎𝟎 Based on the enzyme activity, a minimum of 2-fold increase of a response compared to vehicle control and ≥ 20% of the positive control was considered as the cutoff for a positive signal in in vitro induction

CYP2B6 = assay: CYP induction (enzyme activity) in cryopreserved human hepatocytes, CYP2B6; settings: for Percent of Control / fold induction at 72 h, 30 µM: 30 µM; for fold induction at 72 h, 30 µM / fold induction at 72 h, 1000 µM: human, plated cryopreserved human hepatocytes
Procedure: as §1, §2, §3, §4

CYP3A4 = assay: CYP induction (enzyme activity) in cryopreserved human hepatocytes, CYP3A4; assay type: in vitro ADME; settings: 30 µM; for fold induction at 72 h, 30 µM: human, plated cryopreserved human hepatocytes

For `C[C@H]1O[C@@H](O[C@H]2[C@@H](O)C[C@H](O[C@H]3[C@@H](O)C[C@H](O[C@H]4CC[C@@]5(C)[C@H](CC[C@@H]6[C@@H]5C[C@@H](O)[C@]5(C)[C@@H](C7=CC(=O)OC7)CC[C@]65O)C4)O[C@@H]3C)O[C@@H]2C)C[C@H](O)[C@@H]1O` [Digoxin, digoxin, reference compound], the recovery at 120 min, 5 μM ([1]; read-out: Recovery A to B) was 92.4 ± 1%, the recovery at 120 min, 5 μM ([1]; read-out: Recovery B to A) was 86 ± 6% and the Papp A→B at 120 min, 5 μM [1] was 0.687 ± 0.088 ×10⁻⁶ cm/s. It also gave a Papp B→A at 120 min, 5 μM [1] of 14.5 ± 1.68 ×10⁻⁶ cm/s and an efflux ratio at 120 min, 5 μM [1] of 21.2 ± 2.

With `CCOC(=O)c1ncn2c1CN(C)C(=O)c1cc(F)ccc1-2` [Flumazenil, flumazenil, reference compound] the “Percent of Control” value (CYP1A2; donor one) was −2.20%, the “Percent of Control” value (CYP1A2; donor three) was −3.60% and the “Percent of Control” value (CYP1A2; donor two) was 0.450%. For the same compound, the fold induction at 72 h, 30 µM (CYP1A2; donor one) was 0.818 ± 0.032, the fold induction at 72 h, 30 µM (CYP1A2; donor three) was 0.807 ± 0.177 and the fold induction at 72 h, 30 µM (CYP1A2; donor two) was 1.06 ± 0.11. For the same compound, the “Percent of Control” value (CYP2B6; donor one) was 3.77%, the “Percent of Control” value (CYP2B6; donor three) was 5.23% and the “Percent of Control” value (CYP2B6; donor two) was −3.61%. It also gave a fold induction at 72 h, 30 µM (CYP2B6; donor one) of 1.17 ± 0.04, a fold induction at 72 h, 30 µM (CYP2B6; donor three) of 1.28 ± 0.2 and a fold induction at 72 h, 30 µM (CYP2B6; donor two) of 0.789 ± 0.07. The “Percent of Control” value (CYP3A4; donor one) was 1.16%, the “Percent of Control” value (CYP3A4; donor three) was 3.11% and the “Percent of Control” value (CYP3A4; donor two) was 4.37%. It also gave a fold induction at 72 h, 30 µM (CYP3A4; donor one) of 1.06 ± 0.09, a fold induction at 72 h, 30 µM (CYP3A4; donor three) of 1.23 ± 0.09 and a fold induction at 72 h, 30 µM (CYP3A4; donor two) of 1.39 ± 0.04.

Compound `Nc1cc(N2CCCCC2)nc(N)[n+]1[O-]` [Minoxidil, minoxidil, reference compound] has a recovery at 120 min, 5 μM ([1]; read-out: Recovery A to B) of 91 ± 1.4%, a recovery at 120 min, 5 μM ([1]; read-out: Recovery B to A) of 94.4 ± 48% and a Papp A→B at 120 min, 5 μM [1] of 6.47 ± 0.22 ×10⁻⁶ cm/s. For the same compound, the Papp B→A at 120 min, 5 μM [1] was 7.44 ± 0.47 ×10⁻⁶ cm/s and the efflux ratio at 120 min, 5 μM [1] was 1.15 ± 0.09.

With `COc1ccc2[nH]c([S+]([O-])Cc3ncc(C)c(OC)c3C)nc2c1` (stereo not shown) [Omeprazole, omeprazole, reference compound] the fold induction at 72 h, 50 µM (CYP1A2; donor one) was 9.28 ± 0.223, the fold induction at 72 h, 50 µM (CYP1A2; donor three) was 6.37 ± 0.14 and the fold induction at 72 h, 50 µM (CYP1A2; donor two) was 15 ± 1.8.

`CCC1(c2ccccc2)C(=O)NC(=O)NC1=O` [Phenobarbital, phenobarbital, reference compound] gave a fold induction at 72 h, 1000 µM (CYP2B6; donor one) of 5.44 ± 0.13, a fold induction at 72 h, 1000 µM (CYP2B6; donor three) of 6.29 ± 0.9 and a fold induction at 72 h, 1000 µM (CYP2B6; donor two) of 6.86 ± 0.36.
